Experimental data taken from the supplement of paper PMC10307832.

Columns and labels:
Assay in all cases: relative viability (nuclei count vs DMSO), 5 days (fraction); higher = more cells survive
GW-2580 + Palbociclib = compound: COC1=CC=C(C=C1)COC2=C(C=C(C=C2)CC3=CN=C(N=C3N)N)OC [GW-2580] + CC(=O)c1c(C)c2cnc(Nc3ccc(N4CCNCC4)cn3)nc2n(C2CCCC2)c1=O [Palbociclib] (partner 0.5 µM)
How it was run: (§1)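 Five library-drug doses in √10 steps were combined with a fixed anchor-drug dose, or a single drug was given alone, by pin tool to lung cancer cell lines in 1536-well plates the day after seeding. Nuclei were stained and counted after 5 days. Relative viability is the nuclei count in treated wells over that in vehicle wells, taken as the median of duplicate plates.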

Fedratinib + Palbociclib = compound: Cc1cnc(Nc2ccc(OCCN3CCCC3)cc2)nc1Nc1cccc(S(=O)(=O)NC(C)(C)C)c1 [Fedratinib] + CC(=O)c1c(C)c2cnc(Nc3ccc(N4CCNCC4)cn3)nc2n(C2CCCC2)c1=O [Palbociclib] (partner 0.5 µM)
How it was run: as §1

Fedratinib + Pictilisib = compound: Cc1cnc(Nc2ccc(OCCN3CCCC3)cc2)nc1Nc1cccc(S(=O)(=O)NC(C)(C)C)c1 [Fedratinib] + CS(=O)(=O)N1CCN(Cc2cc3nc(-c4cccc5[nH]ncc45)nc(N4CCOCC4)c3s2)CC1 [Pictilisib] (partner 1 µM)
How it was run: as §1

GW-2580 + Dasatinib = compound: COC1=CC=C(C=C1)COC2=C(C=C(C=C2)CC3=CN=C(N=C3N)N)OC [GW-2580] + Cc1nc(Nc2ncc(C(=O)Nc3c(C)cccc3Cl)s2)cc(N2CCN(CCO)CC2)n1 [Dasatinib] (partner 0.075 µM)
How it was run: as §1

Fedratinib + Foretinib = compound: Cc1cnc(Nc2ccc(OCCN3CCCC3)cc2)nc1Nc1cccc(S(=O)(=O)NC(C)(C)C)c1 [Fedratinib] + COc1cc2c(Oc3ccc(NC(=O)C4(C(=O)Nc5ccc(F)cc5)CC4)cc3F)ccnc2cc1OCCCN1CCOCC1 [Foretinib] (partner 0.25 µM)
How it was run: as §1

Cell Line	relative viability (GW-2580 + Palbociclib; first compound 0.08 µM)	relative viability (GW-2580 + Palbociclib; first compound 0.8 µM)	relative viability (GW-2580 + Palbociclib; first compound 2.53 µM)	relative viability (GW-2580 + Palbociclib; first compound 8 µM)	relative viability (Fedratinib + Palbociclib; first compound 0.1 µM)	relative viability (Fedratinib + Palbociclib; first compound 0.3162 µM)	relative viability (Fedratinib + Palbociclib; first compound 1 µM)	relative viability (Fedratinib + Pictilisib; first compound 0.1 µM)	relative viability (Fedratinib + Pictilisib; first compound 0.3162 µM)	relative viability (Fedratinib + Pictilisib; first compound 1 µM)	relative viability (GW-2580 + Dasatinib; first compound 0.08 µM)	relative viability (GW-2580 + Dasatinib; first compound 0.8 µM)	relative viability (GW-2580 + Dasatinib; first compound 2.53 µM)	relative viability (GW-2580 + Dasatinib; first compound 8 µM)	relative viability (Fedratinib + Foretinib; first compound 0.1 µM)	relative viability (Fedratinib + Foretinib; first compound 0.3162 µM)	relative viability (Fedratinib + Foretinib; first compound 1 µM)
HCC-44	0.98	1.02	0.961	0.967	0.95	0.968	0.983	0.407	0.623	0.465							
HCC-827	0.571	0.531	0.479	0.467	0.454	0.485	0.475	0.99	0.927	0.941	0.309	0.413	0.283	0.245	1.03	1.07	0.96
NCI-H1623											0.46	0.645	0.447	0.583	0.839	0.876	0.817
NCI-H2347	0.382	0.453	0.451	0.426	0.37	0.426	0.391	0.584	0.513	0.561	0.341	0.294	0.244	0.271	0.869	0.853	0.829
PC-14	0.653	0.614	0.607	0.473	0.592	0.58	0.402	0.465	0.606	0.438	0.347	0.281	0.228	0.218	0.975	1.08	1
NCI-H1651	0.503	0.594	0.499	0.557	0.49	0.485	0.508	0.566	0.591	0.0696	0.307	0.447	0.43	0.582	0.813	0.73	0.761
HARA	0.238	0.24	0.265	0.291	0.261	0.301	0.214	0.348	0.422	0.306	0.276	0.253	0.261	0.0615	0.948	0.493	0.782
NCI-H1650	0.395	0.48	0.354	0.326	0.299	0.408	0.288	0.355	0.571	0.155	0.339	0.399	0.326	0.296		1.1	0.885
NCI-H1395	0.594	0.603	0.57	0.613	0.599	0.561	0.493	0.515	0.642	0.469	0.41	0.409	0.401	0.427	0.926	0.956	0.959
LU99A	0.476	0.444	0.356	0.376	0.469	0.382	0.392	0.325	0.369	0.217	0.609	0.651	0.472	0.465	0.717	0.858	0.644
NCI-H1355	0.407	0.439	0.337	0.322	0.412	0.396	0.385	0.366	0.437	0.382	0.831	0.779	0.468	0.649	1.06	0.973	0.913
HCC-78	0.459	0.522		0.5	0.47	0.443	0.476	0.227		0.226	0.322	0.467	0.286	0.298	0.504	0.548	0.509
NCI-H1563								0.608	0.711	0.712	0.473	0.534	0.458	0.447	0.894	0.927	0.874
HCC-15	0.82	0.814	0.706	0.56	0.664	0.708	0.636	0.581	0.713	0.28	0.639	0.73	0.629	0.578	1.02	1.01	0.86
EKVX	0.341	0.392	0.675	0.327	0.391	0.403	0.414	0.497	0.426	0.504	0.613	0.655	0.431	0.527	0.791	0.687	0.828
NCI-H2087	0.196	0.274	0.216	0.252	0.23	0.24	0.258	0.705	1	0.27	1.11	0.846	0.785	0.774	0.65	1.01	1.01
LK-2	0.877	0.853	0.426	0.614	0.55	0.581	0.608		0.563	0.399	0.288	0.281	0.282	0.295	1.1	1.14	1.14
NCI-H1437	0.307	0.338	0.297	0.262	0.264	0.308	0.293	0.339	0.528	0.119	0.422	0.411	0.36	0.271	1.25	1.25	1.33
COR-L23	0.264	0.328	0.302	0.288	0.303	0.26	0.131	0.891	0.809	0.707	0.566	0.502	0.519	0.464	0.912	0.838	0.921
